In patent US12605402B2, “Therapeutic uses of oxidizing hypotonic acid solutions” (APR Applied Pharma Research SA, priority 2019, dated 2026):
Like-named read-outs stand apart in the source and are kept apart here.

Legend:
[1] = system: SARS-CoV-2; format: cell-based; conditions: concentration 90% (solution), 63% (ethanol); for Virus Titer: virus control 3.5
[2] = system: Vero 76 cells

CCO [Ethanol]
LRV (log reduction value) compared to the virus control ([1]; Contact Time 3 min): >1.8 | Virus Titer ([1]; Contact Time 3 min): <1.7 Log10 CCID50 of virus per 0.1 mL | LRV (log reduction value) compared to the virus control ([1]; Contact Time <1 min): >1.8 | Virus Titer ([1]; Contact Time <1 min): <1.7 Log10 CCID50 of virus per 0.1 mL | toxicity to cells [2]: toxic to cells
